For the data set, the system named is human Factor 11 mRNA. The data set is described as follows: Dose-dependent inhibition of human Factor 11 in HepG2 cells, electroporation 123.46-10,000 nM (Example 31). It counts as cell-based. As to conditions: for Percent inhibition of Factor 11 mRNA at 123.47 nM / Percent inhibition of Factor 11 mRNA at 370.37 nM / IC50: electroporation; for Percent inhibition of Factor 11 mRNA at 123.47 nM / Percent inhibition of Factor 11 mRNA at 370.37 nM / Percent inhibition of Factor 11 mRNA at 1,111.11 nM / Percent inhibition of Factor 11 mRNA at 3,333.33 nM / Percent inhibition of Factor 11 mRNA at 10,000.0 nM: approx. 16 hours, relative to untreated control cells; for Percent inhibition of Factor 11 mRNA at 1,111.11 nM: electroporation, 1,111.11 nM; for Percent inhibition of Factor 11 mRNA at 3,333.33 nM: electroporation, 3,333.33 nM; for Percent inhibition of Factor 11 mRNA at 10,000.0 nM: electroporation, 10,000.0 nM; for IC50: Factor 11 mRNA expression. The method, boiled down: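 HepG2 cells were electroporated with antisense oligonucleotide at 123.46, 370.37, 1,111.11, 3,333.33 and 10,000 nM and harvested about 16 hours later. Factor 11 mRNA was quantified by qRT-PCR and normalised to total RNA (RIBOGREEN). Inhibition is expressed relative to untreated cells.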

Strand notation (5' to 3'): a small letter for the sugar, then the base; units joined by * are phosphorothioate-linked, units joined directly phosphodiester-linked; [ ] holds rarer units or linkages, { } end groups; capitals alone tell only the bases. e = 2'-O-(2-methoxyethyl) (MOE); [5mC] = 5-methylcytosine; d = 2'-deoxy (DNA)

As a reminder, the IC50 is the concentration needed to halve the response being measured. On to “416850 (antisense TGCACAGTTTCTGGCAGGCC; 5-10-5 gapmer, further chemistry not given here) [compound 416850]”, for which the “Percent inhibition of Factor 11 mRNA at 123.47 nM” value (“Percent inhibition … at 123.47 nM” below) is reported as 0%, the “Percent inhibition of Factor 11 mRNA at 370.37 nM” value (shortened to “Percent inhibition … at 370.37 nM”) is given as 12%, the “Percent inhibition of Factor 11 mRNA at 1,111.11 nM” value (“Percent inhibition … at 1,111.11 nM” for short) is 36% and the “Percent inhibition of Factor 11 mRNA at 3,333.33 nM” value (from here on “Percent inhibition … at 3,333.33 nM”) was 74%. The “Percent inhibition of Factor 11 mRNA at 10,000.0 nM” value (from here on “Percent inhibition … at 10,000.0 nM”) is 73% and the IC50 was 2800 nM.

On to “416856 (antisense GGCATTGGTGCACAGTTTCT; 5-10-5 gapmer, further chemistry not given here) [compound 416856]”, for which the “Percent inhibition … at 123.47 nM” value amounted to 12%, the “Percent inhibition … at 370.37 nM” value is reported as 23%, the “Percent inhibition … at 1,111.11 nM” value worked out at 35% and the “Percent inhibition … at 3,333.33 nM” value came out at 59%. Further, the “Percent inhibition … at 10,000.0 nM” value turned out to be 83% and it took 1600 nM to reach half-maximal inhibition (IC50).

In the case of “416858 (antisense ACGGCATTGGTGCACAGTTT; 5-10-5 gapmer, further chemistry not given here) [compound 416858]”, the “Percent inhibition … at 123.47 nM” value is listed as 0%, the “Percent inhibition … at 370.37 nM” value is reported as 27%, the “Percent inhibition … at 1,111.11 nM” value stood at 36% and the “Percent inhibition … at 3,333.33 nM” value came out at 64%. The “Percent inhibition … at 10,000.0 nM” value was determined as 70% and the midpoint of inhibition, the IC50, lay at 2200 nM.

As for “445522 (antisense eG*e[5mC]*eA*e[5mC]*eA*dG*dT*dT*dT*d[5mC]*dT*dG*dG*e[5mC]*eA*eG*eG*e[5mC]) [compound 445522]”, the “Percent inhibition … at 123.47 nM” value came to 0%, the “Percent inhibition … at 370.37 nM” value was 0%, the “Percent inhibition … at 1,111.11 nM” value was 44% and the “Percent inhibition … at 3,333.33 nM” value was 63%. The “Percent inhibition … at 10,000.0 nM” value is 74% and 2900 nM corresponded to half-maximal inhibition (IC50).

In the case of “445531 (antisense eG*eG*e[5mC]*eA*eT*dT*dG*dG*dT*dG*d[5mC]*dA*d[5mC]*eA*eG*eT*eT*eT) [compound 445531]”, the “Percent inhibition … at 123.47 nM” value was 8%, the “Percent inhibition … at 370.37 nM” value amounted to 16%, the “Percent inhibition … at 1,111.11 nM” value was determined as 52% and the “Percent inhibition … at 3,333.33 nM” value is 61%. In addition, the “Percent inhibition … at 10,000.0 nM” value is recorded as 77% and the IC50 came to 1800 nM.

Source of the values: patent US20230263822A1, “MODULATION OF FACTOR 11 EXPRESSION” (Ionis Pharmaceuticals, Inc., priority 2008, published 2023).
